Measurements published in patent US10556865B2, “Synergistic herbicidal composition containing certain pyridine or pyrimidine carboxylic acids and certain cereal and rice herbicides” (Dow AgroSciences, LLC, priority 2007, dated 2020).
Several values for one entry are separate records, joined by “and”; a condition that tells them apart may be missing. Equal values may be shown once.

Assays:
[1] = system: Brachiaria platyphylla (BRISEB.) NASH (BRAPP); assay: Postemergence herbicidal mixtures for weed control in direct seeded rice (greenhouse, visual % injury); type: in vivo
[2] = system: Cyperus esculentus L. (CYPES); assay: as above; type: in vivo; conditions: for % Injury Ob: CYPES
[3] = system: Polygonum persicaria L. (POLPE); assay: as above; type: in vivo
[4] = system: Eleocharis kuroguwai OHWI (ELOKU); assay: Herbicidal mixtures for weed control in transplanted paddy rice (in-water application, visual % injury); type: in vivo
How it was run: (§1)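 Scoring of percent injury is visual, 3 weeks after in-water application, on a scale from 0 to 100. Compounds A, C and D are given as acid equivalent and the ALS, ACCase, auxinic, phytoene desaturase and HPPD partners as active ingredient. Application is at the second or third true leaf stage.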

[5] = system: Scirpus maritimus L. (SCPMA); assay: as above; type: in vivo
How it was run: as §1

yellow foxtail (PESGL) = assay: Postemergence herbicidal activity of mixtures in cereal crops (greenhouse, visual injury); type: in vivo, Pennisetum americanum
Experimental: Seeds of the desired test plant species were planted in Sun Gro MetroMix® 306 planting mixture, which typically has a pH of 6.0 to 6.8 and an organic matter content of about 30 percent, in plastic pots with a surface area of 103.2 square centimeters (cm^2). […] The plants were grown for 7-36 days in a greenhouse with an approximate 14 hour photoperiod which was maintained at about 18° C. during the day and 17° C. during the night. Nutrients and water were added on a regular basis and supplemental lighting was provided with overhead metal halide 1000-Watt lamps as necessary. The plants were employed for testing when they reached the second or third true leaf stage.
Treatments consisted of compound (as listed in Tables 1 through 64) and a second cereal herbicide alone and in combination. […] The concentrated stock solutions were diluted to 1.5 mg ai/mL with the addition of 2 volumes of an aqueous mixture containing acetone, water, isopropyl alcohol, DMSO, Agri-dex crop oil concentrate, and Triton® X-77 surfactant in a 64.7:26.0:6.7:2.0:0.7:0.01 v/v ratio. A dilution solution was prepared by mixing 1 volume of 97:3 v/v acetone/DMSO and 2 volumes of an aqueous mixture containing acetone, water, isopropyl alcohol, DMSO, Agri-dex crop oil concentrate, and Triton® X-77 surfactant in a 64.7:26.0:6.7:2.0:0.7:0.01 v/v ratio. Compound requirements are based upon a 12 mL application volume at a rate of 187 liters per hectare (L/ha). […] Formulated compounds were applied to the plant material with an overhead Mandel track sprayer equipped with 8002E nozzles calibrated to deliver 187 L/ha over an application area of 0.503 square meters (m^2) at a spray height of 18 inches […] above average plant canopy. Control plants were sprayed in the same manner with the solvent blank.
The treated plants and control plants were placed in a greenhouse as described above and watered by sub-irrigation to prevent wash-off of the test compounds. After 20-22 days, the condition of the test plants as compared with that of the control plants was determined visually and scored on a scale of 0 to 100 percent where 0 corresponds to no injury and 100 corresponds to complete kill.
Colby's equation was used to determine the herbicidal effects expected from the mixtures (Colby, S. R. 1967. Calculation of the synergistic and antagonistic response of herbicide combinations. Weeds 15:20-22.).
The following equation was used to calculate the expected activity of mixtures containing two active ingredients, A and B: Expected=A+B−(A×B/100)

COC(=O)c1nc(-c2ccc(Cl)c(OC)c2F)cc(N)c1Cl [Compound A Methyl, 4-amino-3-chloro-6-(4-chloro-2-fluoro-3-methoxyphenyl)pyridine-2-carboxylic acid methyl ester]
% Injury Ob ([1]; 4.38 g/ha alone): 60%
% Injury Ob ([1]; 8.75 g/ha alone): 60%
% Injury 11 DAA CYPES Ob ([2]; alone 8.75 g/ha): 60%
% Injury 11 DAA CYPES Ob ([2]; alone 17.5 g/ha): 70%
% Injury 21 DAA CYPES Ob ([2]; alone 8.75 g/ha): 100%
% Injury 21 DAA CYPES Ob ([2]; alone 17.5 g/ha): 99%
% Injury Ob ([2]; 4.38 g/ha alone): 40%
% Injury Ob ([2]; 8.75 g/ha alone): 60%
% Injury CYPES Ob ([2]; alone 4.38 g/ha): 70% and 85%
% Injury POLPE Ob ([3]; alone 8.75 g/ha): 50%
% Injury POLPE Ob ([3]; alone 17.5 g/ha): 90%

COc1c(Cl)ccc(-c2cc(N)c(Cl)c(C(=O)O)n2)c1F [Compound A TEA, 4-amino-3-chloro-6-(4-chloro-2-fluoro-3-methoxyphenyl)pyridine-2-carboxylic acid]
% Injury Ob ([4]; 35 g/ha alone): 30%
% Injury Ob ([4]; 70 g/ha alone): 20%
% Injury Ob ([5]; 35 g/ha alone): 0%
% Injury Ob ([5]; 70 g/ha alone): 50%

COC(=O)c1nc(-c2ccc(Cl)c(OC)c2F)nc(N)c1Cl [Compound B Methyl, 6-amino-5-chloro-2-(4-chloro-2-fluoro-3-methoxyphenyl)pyrimidine-4-carboxylic acid methyl ester]
PESGL Ob (yellow foxtail (PESGL); 8.75 g/ha): 60%
PESGL Ob (yellow foxtail (PESGL); 17.5 g/ha): 65%
PESGL Ob (yellow foxtail (PESGL); 35 g/ha): 65%
PESGL Ob (yellow foxtail (PESGL); 70 g/ha): 70%
